According to patent publication US11452717B2, “Small molecule activators of nicotinamide phosphoribosyltransferase (NAMPT) and uses thereof” (Sanford Burnham Prebys Medical Discovery Institute, priority 2017, dated 2022):
“And” between values parts separate entries of the source, which are not always exact repeats. Identical values can stand only once.

What follows are compounds tested against NAMPT enzyme (Homo sapiens (Human), UniProt P43490) (assay: Enzyme Assay and NMN Detection (NAMPT reaction, fluorescence detection of NMN)). Conditions: Table B-1; NAMPT activation, NMN formation.
Sequence of NAMPT enzyme (P43490 whole entry, species assumed): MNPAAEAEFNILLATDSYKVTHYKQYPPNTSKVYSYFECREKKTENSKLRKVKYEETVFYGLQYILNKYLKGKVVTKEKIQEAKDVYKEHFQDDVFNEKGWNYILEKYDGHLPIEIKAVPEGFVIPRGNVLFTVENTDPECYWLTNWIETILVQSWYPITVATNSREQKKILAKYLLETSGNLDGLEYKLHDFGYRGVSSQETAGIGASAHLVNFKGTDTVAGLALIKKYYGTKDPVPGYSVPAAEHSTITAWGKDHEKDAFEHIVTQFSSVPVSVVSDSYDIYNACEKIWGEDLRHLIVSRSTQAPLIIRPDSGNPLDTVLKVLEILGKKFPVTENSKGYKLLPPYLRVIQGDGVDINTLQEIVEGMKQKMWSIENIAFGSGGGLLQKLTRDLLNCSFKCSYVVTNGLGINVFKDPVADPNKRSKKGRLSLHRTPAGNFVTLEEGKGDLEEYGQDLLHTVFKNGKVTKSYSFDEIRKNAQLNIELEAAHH
Type: biochemical
Summary of the method: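 NMN formed was read at ex380/em460 after acetophenone/KOH derivatization and formic acid addition, using a same-day calibration curve. Final conditions: NAMPT 16 nM, nicotinamide 5 uM, PRPP 6.25 uM, ATP 120 uM, pyrophosphatase 0.04 U/ml, pH 7.5 HEPES buffer with MgCl2 and TCEP, 2 h at room temperature.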

| Structure (SMILES) | EC50 [nM] |
| --- | --- |
| O=C(NCc1cn[nH]c1)Nc1ccc(S(=O)(=O)c2ccccc2Cl)cc1 [1-[4-(2-Chloro-benzenesulfonyl)-phenyl]-3-(1H-pyrazol-4-ylmethyl)-urea] | < 100 |
| COc1ccccc1S(=O)(=O)c1ccc(NC(=O)NCc2cn[nH]c2)cc1 [1-[4-(2-Methoxy-benzenesulfonyl)-phenyl]-3-(1H-pyrazol-4-ylmethyl)-urea] | < 100 |
| O=C(NCc1cn[nH]c1)Nc1ccc(S(=O)(=O)N2CCc3ccccc3C2)cc1 [1-[4-(3,4-Dihydro-1H-isoquinoline-2-sulfonyl)-phenyl]-3-(1H-pyrazol-4-ylmethyl)-urea] | < 100 |
| Cc1noc(C)c1CNC(=O)Nc1ccc(S(=O)(=O)N2CCc3ccccc3C2)cc1 [1-[4-(3,4-Dihydro-1H-isoquinoline-2-sulfonyl)-phenyl]-3-(3,5-dimethyl-isoxazol-4-ylmethyl)-urea] | > 20000 |
| O=C(NCc1cnco1)Nc1ccc(S(=O)(=O)N2CCc3ccccc3C2)cc1 [1-[4-(3,4-Dihydro-1H-isoquinoline-2-sulfonyl)-phenyl]-3-oxazol-5-ylmethyl-urea] | 100 to 2000 |
| O=C(NCc1cncs1)Nc1ccc(S(=O)(=O)N2CCc3ccccc3C2)cc1 [1-[4-(3,4-Dihydro-1H-isoquinoline-2-sulfonyl)-phenyl]-3-thiazol-5-ylmethyl-urea] | 100 to 2000 |
| O=C(NCc1cn[nH]c1)Nc1ccc(S(=O)(=O)c2cccc(Cl)c2)cc1 [1-[4-(3-Chloro-benzenesulfonyl)-phenyl]-3-(1H-pyrazol-4-ylmethyl)-urea] | < 100 |
| COc1cccc(S(=O)(=O)c2ccc(NC(=O)NCc3cn[nH]c3)cc2)c1 [1-[4-(3-Methoxy-benzenesulfonyl)-phenyl]-3-(1H-pyrazol-4-ylmethyl)-urea] | < 100 |

Same assay, conditions: Table B-2; NAMPT activation, NMN formation

| Structure (SMILES) | EC50 [nM] |
| --- | --- |
| COc1ccccc1S(=O)(=O)c1ccc(NC(=O)NCc2ccncc2)cc1 [1-[4-(2-Methoxy-benzenesulfonyl)-phenyl]-3-pyridin-4-ylmethyl-urea] | < 100 |
| O=C(NCc1ccncc1)Nc1ccc(S(=O)(=O)N2CCc3ccccc3C2)cc1 [1-[4-(3,4-Dihydro-1H-isoquinoline-2-sulfonyl)-phenyl]-3-pyridin-4-ylmethyl-urea] | 100 to 2000 |
| COc1cccc(S(=O)(=O)c2ccc(NC(=O)NCc3ccncc3)cc2)c1 [1-[4-(3-Methoxy-benzenesulfonyl)-phenyl]-3-pyridin-4-ylmethyl-urea] | < 100 |
| CC1Cc2ccccc2CN1S(=O)(=O)c1ccc(NC(=O)NCc2ccncc2)cc1 (centres unmarked) [1-[4-(3-Methyl-3,4-dihydro-1H-isoquinoline-2-sulfonyl)-phenyl]-3-pyridin-4-ylmethyl-urea] | 100 to 2000 |

Same assay, conditions: Table B-4; NAMPT activation, NMN formation

| Structure (SMILES) | EC50 [nM] |
| --- | --- |
| CN1CCC(S(=O)(=O)c2ccc(NC(=O)NCc3cn[nH]c3)cc2)CC1 [1-[4-(1-Methyl-piperidine-4-sulfonyl)-phenyl]-3-(1H-pyrazol-4-ylmethyl)-urea] | 2000 to 5000 |
| O=C(NCc1cn[nH]c1)Nc1ccc(-c2cccc3[nH]cnc23)cc1 [1-[4-(1H-Benzoimidazol-4-yl)-phenyl]-3-(1H-pyrazol-4-ylmethyl)-urea] | > 20000 |
| O=C(NCc1cn[nH]c1)Nc1ccc(-c2n[nH]c3ccccc23)cc1 [1-[4-(1H-Indazol-3-yl)-phenyl]-3-(1H-pyrazol-4-ylmethyl)-urea] | 100 to 2000 |
| O=C(NCc1cn[nH]c1)Nc1ccc(S(=O)(=O)c2ccc(Cl)cc2Cl)cc1 [1-[4-(2,4-Dichloro-benzenesulfonyl)-phenyl]-3-(1H-pyrazol-4-ylmethyl)-urea] | 100 to 2000 |
| O=C(NCc1cn[nH]c1)Nc1ccc(S(=O)(=O)c2ccc(F)cc2F)cc1 [1-[4-(2,4-Difluoro-benzenesulfonyl)-phenyl]-3-(1H-pyrazol-4-ylmethyl)-urea] | < 100 |
| O=C(NCc1cn[nH]c1)Nc1ccc(S(=O)(=O)c2ccccc2-c2ccccc2F)cc1 [1-[4-(2′-Fluoro-biphenyl-2-sulfonyl)-phenyl]-3-(1H-pyrazol-4-ylmethyl)-urea] | < 100 |
| COc1ccccc1-c1ccccc1S(=O)(=O)c1ccc(NC(=O)NCc2cn[nH]c2)cc1 [1-[4-(2′-Methoxy-biphenyl-2-sulfonyl)-phenyl]-3-(1H-pyrazol-4-ylmethyl)-urea] | 5000 to 20000 |
| O=C(NCc1cn[nH]c1)Nc1ccc(S(=O)(=O)c2ccc(Cl)c(Cl)c2)cc1 [1-[4-(3,4-Dichloro-benzenesulfonyl)-phenyl]-3-(1H-pyrazol-4-ylmethyl)-urea] | 5000 to 20000 |
| O=C(NCc1cn[nH]c1)Nc1ccc(S(=O)(=O)c2ccc(F)c(F)c2)cc1 [1-[4-(3,4-Difluoro-benzenesulfonyl)-phenyl]-3-(1H-pyrazol-4-ylmethyl)-urea] | 100 to 2000 |
| O=C(NCc1cn[nH]c1)Nc1ccc(S(=O)(=O)c2cc(F)cc(F)c2)cc1 [1-[4-(3,5-Difluoro-benzenesulfonyl)-phenyl]-3-(1H-pyrazol-4-ylmethyl)-urea] | < 100 |
| O=C(NCc1cn[nH]c1)Nc1ccc(S(=O)(=O)c2cccc(I)c2)cc1 [1-[4-(3-Iodo-benzenesulfonyl)-phenyl]-3-(1H-pyrazol-4-ylmethyl)-urea] | < 100 |
| O=C(NCc1cn[nH]c1)Nc1ccc(S(=O)(=O)c2ccccc2-c2cccc(Cl)c2)cc1 [1-[4-(3′-Chloro-biphenyl-2-sulfonyl)-phenyl]-3-(1H-pyrazol-4-ylmethyl)-urea] | 100 to 2000 |

Same assay, conditions: Table B-5; NAMPT activation, NMN formation

| Structure (SMILES) | EC50 |
| --- | --- |
| CN1CCC(S(=O)(=O)c2ccc(NC(=O)NCc3cnco3)cc2)CC1 [1-[4-(1-Methyl-piperidine-4-sulfonyl)-phenyl]-3-oxazol-5-ylmethyl-urea] | 2000 to 5000 nM |
| O=C(NCc1cnco1)Nc1ccc(-c2cccc3[nH]cnc23)cc1 [1-[4-(1H-Benzoimidazol-4-yl)-phenyl]-3-oxazol-5-ylmethyl-urea] | > 20000 nM |
| O=C(NCc1cnco1)Nc1ccc(-c2n[nH]c3ccccc23)cc1 [1-[4-(1H-Indazol-3-yl)-phenyl]-3-oxazol-5-ylmethyl-urea] | 100 to 2000 nM |
| O=C(NCc1cnco1)Nc1ccc(S(=O)(=O)c2ccc(F)cc2F)cc1 [1-[4-(2,4-Difluoro-benzenesulfonyl)-phenyl]-3-oxazol-5-ylmethyl-urea] | 100 to 2000 nM |
| O=C(NCc1cnco1)Nc1ccc(S(=O)(=O)c2ccccc2Cl)cc1 [1-[4-(2-Chloro-benzenesulfonyl)-phenyl]-3-oxazol-5-ylmethyl-urea] | 100 to 2000 nM |
| O=C(NCc1cnco1)Nc1ccc(S(=O)(=O)c2ccc(Cl)c(Cl)c2)cc1 [1-[4-(3,4-Dichloro-benzenesulfonyl)-phenyl]-3-oxazol-5-ylmethyl-urea] | 100 to 2000 nM and 2000 to 5000 nM |
| O=C(NCc1cnco1)Nc1ccc(S(=O)(=O)c2ccc(F)c(F)c2)cc1 [1-[4-(3,4-Difluoro-benzenesulfonyl)-phenyl]-3-oxazol-5-ylmethyl-urea] | 100 to 2000 nM |
| O=C(NCc1cnco1)Nc1ccc(S(=O)(=O)c2cc(F)cc(F)c2)cc1 [1-[4-(3,5-Difluoro-benzenesulfonyl)-phenyl]-3-oxazol-5-ylmethyl-urea] | 100 to 2000 nM |
| COc1cccc(S(=O)(=O)c2ccc(NC(=O)NCc3cnco3)cc2)c1 [1-[4-(3-methoxy-benzenesulfonyl)-phenyl]-3-oxazol-5-ylmethyl-urea] | 100 to 2000 nM |

Same assay, conditions: Table B-6; NAMPT activation, NMN formation

| Structure (SMILES) | EC50 [nM] |
| --- | --- |
| Cn1nc(-c2ccc(NC(=O)NCc3ccncc3)cc2)c2cnccc21 [1-[4-(1-Methyl-1H-pyrazolo[4,3-c]pyridin-3-yl)-phenyl]-3-pyridin-4-ylmethyl-urea] | 5000 to 20000 |
| CN1CCC(S(=O)(=O)c2ccc(NC(=O)NCc3ccncc3)cc2)CC1 [1-[4-(1-Methyl-piperidine-4-sulfonyl)-phenyl]-3-pyridin-4-ylmethyl-urea] | 2000 to 5000 |
| O=C(NCc1ccncc1)Nc1ccc(-c2cccc3[nH]cnc23)cc1 [1-[4-(1H-Benzoimidazol-4-yl)-phenyl]-3-pyridin-4-ylmethyl-urea] | > 20000 |
| O=C(NCc1ccncc1)Nc1ccc(-c2n[nH]c3ccccc23)cc1 [1-[4-(1H-Indazol-3-yl)-phenyl]-3-pyridin-4-ylmethyl-urea] | 100 to 2000 |
| O=C(NCc1ccncc1)Nc1ccc(S(=O)(=O)c2ccc(Cl)cc2Cl)cc1 [1-[4-(2,4-Dichloro-benzenesulfonyl)-phenyl]-3-pyridin-4-ylmethyl-urea] | 100 to 2000 |
| O=C(NCc1ccncc1)Nc1ccc(S(=O)(=O)c2ccc(F)cc2F)cc1 [1-[4-(2,4-Difluoro-benzenesulfonyl)-phenyl]-3-pyridin-4-ylmethyl-urea] | 100 to 2000 |
| O=C(NCc1ccncc1)Nc1ccc(S(=O)(=O)c2ccccc2-c2cccnc2)cc1 [1-[4-(2-Pyridin-3-yl-benzenesulfonyl)-phenyl]-3-pyridin-4-ylmethyl-urea] | 100 to 2000 |
| O=C(NCc1ccncc1)Nc1ccc(S(=O)(=O)c2ccccc2-c2ccncc2)cc1 [1-[4-(2-Pyridin-4-yl-benzenesulfonyl)-phenyl]-3-pyridin-4-ylmethyl-urea] | 100 to 2000 |
| O=C(NCc1ccncc1)Nc1ccc(S(=O)(=O)c2ccccc2-c2ccccc2F)cc1 [1-[4-(2′-Fluoro-biphenyl-2-sulfonyl)-phenyl]-3-pyridin-4-ylmethyl-urea] | < 100 |
| COc1ccccc1-c1ccccc1S(=O)(=O)c1ccc(NC(=O)NCc2ccncc2)cc1 [1-[4-(2′-Methoxy-biphenyl-2-sulfonyl)-phenyl]-3-pyridin-4-ylmethyl-urea] | 5000 to 20000 |
| O=C(NCc1ccncc1)Nc1ccc(S(=O)(=O)c2ccc(Cl)c(Cl)c2)cc1 [1-[4-(3,4-Dichloro-benzenesulfonyl)-phenyl]-3-pyridin-4-ylmethyl-urea] | 100 to 2000 |
| O=C(NCc1ccncc1)Nc1ccc(S(=O)(=O)c2ccc(F)c(F)c2)cc1 [1-[4-(3,4-Difluoro-benzenesulfonyl)-phenyl]-3-pyridin-4-ylmethyl-urea] | < 100 |
| O=C(NCc1ccncc1)Nc1ccc(S(=O)(=O)c2cc(F)cc(F)c2)cc1 [1-[4-(3,5-Difluoro-benzenesulfonyl)-phenyl]-3-pyridin-4-ylmethyl-urea] | 100 to 2000 |
| O=C(NCc1ccncc1)Nc1ccc(S(=O)(=O)c2cccc(I)c2)cc1 [1-[4-(3-Iodo-benzenesulfonyl)-phenyl]-3-pyridin-4-ylmethyl-urea] | < 100 |
